# Measured values published in patent US20230092890A1, “1, 3, 4-Oxadiazole derivative compounds as histone deacetylase 6 inhibitor, and the pharmaceutical composition comprising the same” (Chong Kun Dang Pharmaceutical Corp., priority 2019, published 2023).
# What was measured:
# HDAC6 human recombinant = biological target: T1, HDAC6 human recombinant (Homo sapiens, UniProt Q9UBN7); assay: HDAC enzyme activity inhibition (in vitro), HDAC6 assay; type: biochemical; settings: samples at 0.1, 1, 10, 100 and 1000 nM; 37° C. 60 minutes; fluorescence Ex 390, Em 460; read-out: HDAC6 IC50
# T1 construct: purchased Calbiochem 382180
# T1 sequence (Q9UBN7 1-1215): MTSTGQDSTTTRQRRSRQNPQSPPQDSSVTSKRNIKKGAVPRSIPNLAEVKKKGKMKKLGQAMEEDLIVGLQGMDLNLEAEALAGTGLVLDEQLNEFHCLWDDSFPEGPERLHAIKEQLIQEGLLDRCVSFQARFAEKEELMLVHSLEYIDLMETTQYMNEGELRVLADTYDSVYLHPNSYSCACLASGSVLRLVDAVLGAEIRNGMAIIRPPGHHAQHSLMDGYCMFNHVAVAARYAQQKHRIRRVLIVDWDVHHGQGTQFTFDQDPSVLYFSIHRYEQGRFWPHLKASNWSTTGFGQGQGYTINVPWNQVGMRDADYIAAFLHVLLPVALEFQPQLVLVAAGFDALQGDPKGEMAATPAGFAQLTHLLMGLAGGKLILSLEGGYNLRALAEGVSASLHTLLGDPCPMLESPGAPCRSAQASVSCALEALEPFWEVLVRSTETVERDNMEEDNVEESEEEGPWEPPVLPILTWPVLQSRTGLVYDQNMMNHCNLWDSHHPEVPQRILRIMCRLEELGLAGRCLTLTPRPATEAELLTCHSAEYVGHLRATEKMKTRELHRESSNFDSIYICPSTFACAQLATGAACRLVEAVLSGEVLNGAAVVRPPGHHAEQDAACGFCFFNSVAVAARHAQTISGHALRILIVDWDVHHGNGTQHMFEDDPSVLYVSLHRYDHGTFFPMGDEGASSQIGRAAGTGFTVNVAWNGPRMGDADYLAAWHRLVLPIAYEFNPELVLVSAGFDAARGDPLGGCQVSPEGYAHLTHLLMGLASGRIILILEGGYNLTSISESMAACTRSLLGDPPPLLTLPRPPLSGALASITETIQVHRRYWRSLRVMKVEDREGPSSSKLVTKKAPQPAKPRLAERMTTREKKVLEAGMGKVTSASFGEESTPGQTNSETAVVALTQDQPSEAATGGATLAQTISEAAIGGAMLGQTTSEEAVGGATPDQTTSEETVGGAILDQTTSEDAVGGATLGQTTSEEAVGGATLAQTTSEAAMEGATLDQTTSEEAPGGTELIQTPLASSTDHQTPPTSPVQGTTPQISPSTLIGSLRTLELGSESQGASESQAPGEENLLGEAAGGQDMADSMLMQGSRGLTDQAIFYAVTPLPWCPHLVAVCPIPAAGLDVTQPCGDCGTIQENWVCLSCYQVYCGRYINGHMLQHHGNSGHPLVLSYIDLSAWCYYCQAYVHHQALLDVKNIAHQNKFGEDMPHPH
# Method: A HDAC enzyme inhibitory capacity of a test material was measured by using HDAC1 Fluorimetric Drug Discovery Assay Kit (Enzolifesciences: BML-AK511) and HDAC6 human recombinant (Calbiochem: 382180). For a HDAC1 assay, samples were treated at a concentration of 100, 1000 and 10000 nM. […] After the above sample treatment, a reaction was continued at 37° C. for 60 minutes, then treated with a developer, and then subjected to a reaction at 37° C. for 30 minutes, after which fluorescence intensity (Ex 390, Em 460) was measured by using FlexStatin3 (Molecular device).
# HDAC1 = biological target: T2, HDAC1 (Homo sapiens, UniProt Q13547); assay: HDAC enzyme activity inhibition (in vitro), HDAC1 Fluorimetric Drug Discovery Assay Kit; type: biochemical; settings: samples at 100, 1000 and 10000 nM; 37° C. 60 minutes; fluorescence Ex 390, Em 460; read-out: HDAC1 IC50
# T2 construct: purchased Enzolifesciences BML-AK511
# Method: <Experimental Example 1> Identification of HDAC Enzyme Activity Inhibition (In Vitro)
# A selective HDAC6 inhibitor is important for selectivity of HDAC1 inhibition, which is a cause of side effects, and thus HDAC1/6 enzyme selectivity and cell selectivity (HDAC1: histone acetylation/HDAC6: tubulin acetylation) were identified.
# A HDAC enzyme inhibitory capacity of a test material was measured by using HDAC1 Fluorimetric Drug Discovery Assay Kit (Enzolifesciences: BML-AK511) and HDAC6 human recombinant (Calbiochem: 382180). For a HDAC1 assay, samples were treated at a concentration of 100, 1000 and 10000 nM. For a HDAC6 assay, samples were treated at a concentration of 0.1, 1, 10, 100 and 1000 nM. After the above sample treatment, a reaction was continued at 37° C. for 60 minutes, then treated with a developer, and then subjected to a reaction at 37° C. for 30 minutes, after which fluorescence intensity (Ex 390, Em 460) was measured by using FlexStatin3 (Molecular device).
# T2 sequence (Q13547 whole entry): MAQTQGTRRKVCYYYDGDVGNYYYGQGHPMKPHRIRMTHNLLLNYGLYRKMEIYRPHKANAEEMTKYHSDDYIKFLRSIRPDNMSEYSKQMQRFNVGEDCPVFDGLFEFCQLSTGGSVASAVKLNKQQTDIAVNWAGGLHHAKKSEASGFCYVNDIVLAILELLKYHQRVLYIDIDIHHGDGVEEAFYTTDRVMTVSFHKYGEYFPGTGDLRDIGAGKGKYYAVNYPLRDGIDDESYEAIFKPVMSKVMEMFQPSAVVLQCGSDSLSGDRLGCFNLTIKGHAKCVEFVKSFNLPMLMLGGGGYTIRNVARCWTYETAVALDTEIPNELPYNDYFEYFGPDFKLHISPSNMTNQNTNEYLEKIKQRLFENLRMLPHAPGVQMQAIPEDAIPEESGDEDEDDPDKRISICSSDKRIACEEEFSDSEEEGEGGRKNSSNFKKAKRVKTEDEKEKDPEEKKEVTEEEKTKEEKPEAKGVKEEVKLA
Structure (SMILES),IC50 (HDAC6 human recombinant) [nM],IC50 (HDAC1) [nM]
"CN(C)CCn1c(=O)n(Cc2ccc(-c3nnc(C(F)F)o3)cn2)c2cc(F)c(-c3cccnc3)cc21 [Compound 326, 1-((5-(5-(difluoromethyl)-1,3,4-oxadiazole-2-yl)pyridine-2-yl)methyl)-3-(2-(dimethylamino)ethyl)-6-fluoro-5-(pyridine-3-yl)-1,3-dihydro-2H-benzo[d]imidazole-2-one]",160,> 10000
"O=c1n(Cc2ccc(-c3nnc(C(F)F)o3)cn2)c2cc(C(F)(F)F)ccc2n1C1CCN(C2COC2)CC1 [Compound 90, 3-((5-(5-(difluoromethyl)-1,3,4-oxadiazole-2-yl)pyridine-2-yl)methyl)-1-(1-(oxetan-3-yl)piperidine-4-yl)-5-(trifluoromethyl)-1,3-dihydro-2H-benzo[d]imidazole-2-one]",31,> 10000
"O=c1n(Cc2ccc(-c3nnc(C(F)F)o3)cc2F)c2ccccc2n1C1CCN(C2COC2)CC1 [Compound 16, 1-(4-(5-(difluoromethyl)-1,3,4-oxadiazole-2-yl)-2-fluorobenzyl)-3-(1-(oxetan-3-yl)piperidine-4-yl)-1,3-dihydro-2H-benzo[d]imidazole-2-one]",239,> 10000
"CS(=O)(=O)N1CCC(n2c(=O)n(Cc3ccc(-c4nnc(C(F)F)o4)cc3)c3ccc(Cl)cc32)CC1 [Compound 202, 5-chloro-1-(4-(5-(difluoromethyl)-1,3,4-oxadiazole-2-yl)benzyl)-3-(1-(methylsulfonyl)piperidine-4-yl)-1,3-dihydro-2H-benzo[d]imidazole-2-one]",139,> 10000
"CS(=O)(=O)N1CCC(n2c(=O)n(Cc3ccc(-c4nnc(C(F)F)o4)cc3)c3ncccc32)CC1 [Compound 205, 3-(4-(5-(difluoromethyl)-1,3,4-oxadiazole-2-yl)benzyl)-1-(1-(methylsulfonyl)piperidine-4-yl)-1,3-dihydro-2H-imidazo[4,5-b]pyridine-2-one]",739,> 10000
"CS(=O)(=O)N1CCC(n2c(=O)n(Cc3ccc(-c4nnc(C(F)F)o4)cc3F)c3ccccc32)CC1 [Compound 18, 1-(4-(5-(difluoromethyl)-1,3,4-oxadiazole-2-yl)-2-fluorobenzyl)-3-(1-(methylsulfonyl)piperidine-4-yl)-1,3-dihydro-2H-benzo[d]imidazole-2-one]",267,> 10000
"O=c1n(Cc2ccc(-c3nnc(C(F)F)o3)cn2)c2ccccc2n1C1CCS(=O)(=O)CC1 [Compound 13, 1-((5-(5-(difluoromethyl)-1,3,4-oxadiazole-2-yl)pyridine-2-yl)methyl)-3-(1,1-dioxydotetrahydro-2H-thiopyran-4-yl)-1,3-dihydro-2H-benzo[d]imidazole-2-one]",161,> 10000
"CN1CCC(n2c(=O)n(Cc3ccc(-c4nnc(C(F)F)o4)cc3F)c3cc(F)c(F)cc32)CC1 [Compound 93, 1-(4-(5-(difluoromethyl)-1,3,4-oxadiazole-2-yl)-2-fluorobenzyl)-5,6-difluoro-3-(1-methylpiperidine-4-yl)-1,3-dihydro-2H-benzo[d]imidazole-2-one]",40,> 10000
"O=c1oc2cc(-c3cccc4[nH]ccc34)ccc2n1Cc1ccc(-c2nnc(C(F)F)o2)cn1 [Compound 306, 3-((5-(5-(difluoromethyl)-1,3,4-oxadiazole-2-yl)pyridine-2-yl)methyl)-6-(1H-indole-4-yl)benzo[d]oxazole-2(3H)-one]",34,> 10000
"CS(=O)(=O)N1CCC(n2c(=O)n(Cc3ccc(-c4nnc(C(F)F)o4)cn3)c3cc(C(F)(F)F)ccc32)CC1 [Compound 195, 3-((5-(5-(difluoromethyl)-1,3,4-oxadiazole-2-yl)pyridine-2-yl)methyl)-1-(1-(methylsulfonyl)piperidine-4-yl)-5-(trifluoromethyl)-1,3-dihydro-2H-benzo[d]imidazole-2-one]",50,> 10000
"O=c1n(Cc2ccc(-c3nnc(C(F)F)o3)cn2)c2cc(F)c(-c3cccnc3)cc2n1C1CN(C2COC2)C1 [Compound 311, 1-((5-(5-(difluoromethyl)-1,3,4-oxadiazole-2-yl)pyridine-2-yl)methyl)-6-fluoro-3-(1-(oxetan-3-yl)azetidine-3-yl)-5-(pyridine-3-yl)-1,3-dihydro-2H-benzo[d]imidazole-2-one]",12,> 10000
"Cn1nccc1-c1cc2c(cc1F)n(Cc1ccc(-c3nnc(C(F)F)o3)cn1)c(=O)n2C [Compound 226, 1-((5-(5-(difluoromethyl)-1,3,4-oxadiazole-2-yl)pyridine-2-yl)methyl)-6-fluoro-3-methy 1-5-(1-methyl-1H-pyrazole-5-yl)-1,3-dihydro-2H-benzo[d]imidazole-2-one]",,> 10000
"O=c1oc2cc(-c3cnn(C4CCN(C5COC5)CC4)c3)c(F)cc2n1Cc1ccc(-c2nnc(C(F)F)o2)cn1 [Compound 362, 3-((5-(5-(difluoromethyl)-1,3,4-oxadiazole-2-yl)pyridine-2-yl)methyl)-5-fluoro-6-(1-(1-(oxetan-3-yl)piperidine-4-yl)-1H-pyrazole-4-yl)benzo[d]oxazole-2(3H)-one]",31,> 10000
"CC(C)(C)OC(=O)N1CCN(c2ccc(-c3cc4oc(=O)n(Cc5ccc(-c6nnc(C(F)F)o6)cn5)c4cc3F)cn2)CC1 [Compound 344, tert-butyl 4-(5-(3-((5-(5-(difluoromethyl)-1,3,4-oxadiazole-2-yl)pyridine-2-yl)methyl)-5-fluoro-2-oxo-2,3-dihydrobenzo[d]oxazole-6-yl)pyridine-2-yl)piperazine-1-carboxylate]",671,> 10000
"O=c1n(Cc2ccc(-c3nnc(C(F)F)o3)cn2)c2cc(F)ccc2n1C1CCS(=O)(=O)CC1 [Compound 188, 3-((5-(5-(difluoromethyl)-1,3,4-oxadiazole-2-yl)pyridine-2-yl)methyl)-1-(1,1-dioxydotetrahydro-2H-thiopyran-4-yl)-5-fluoro-1,3-dihydro-2H-benzo[d]imidazole-2-one]",,> 10000
"CN1CCN(c2cc3c(cc2F)n(Cc2ccc(-c4nnc(C(F)F)o4)cn2)c(=O)n3C)CC1 [Compound 260, 1-((5-(5-(difluoromethyl)-1,3,4-oxadiazole-2-yl)pyridine-2-yl)methyl)-6-fluoro-3-methy 1-5-(4-methylpiperazine-1-yl)-1,3-dihydro-2H-benzo[d]imidazole-2-one]",,> 10000
"O=c1n(Cc2ccc(-c3nnc(C(F)F)o3)cn2)c2cc(F)ccc2n1C1CCN(C2CCC2)CC1 [Compound 52, 1-(1-cyclobutylpiperidine-4-yl)-3-((5-(5-(difluoromethyl)-1,3,4-oxadiazole-2-yl)pyridine-2-yl)methyl)-5-fluoro-1,3-dihydro-2H-benzo[d]imidazole-2-one]",,> 10000
